{"source": "paper PMC5595280", "about": "“Cytotoxicity and anti-tumor effects of new ruthenium complexes on triple negative breast cancer cells” (PLoS ONE, 2017)", "key": {"MDA-MB-231 cells [1]": {"test_system": "MDA-MB-231 cells", "assay": "Phalloidin staining of F-actin cytoskeleton", "type": "cell-based, human", "conditions": "30 min", "description": "To examine the effects of complex (4) on the F-actin cytoskeleton organization in MDA-MB-231 cells, Alexa Fluor® 488 Phalloidin was used to stain the F-actin fibers. MDA-MB-231 cells (5x10^4 cells/100 μL) were plated in 96-well plates and maintained at 37°C in a humidified incubator with 5% CO2 for 24 h. In the next day, cells were treated with 10, 20, 40 μM of complex (4) and incubated for 30 min. Next, cells were washed with PBS, fixed with 3.7% paraformaldehyde in PBS for 30 min and then permeabilized with 0.1% Triton-X 100 in PBS for 5min at room temperature. Blocking was performed with 2% BSA for 30 min, followed by the addition of Alexa Fluor 488 Phalloidin for 20 min. Cells were then stained with DAPI for nuclear labeling for 10min and finally washed again with PBS for three times. Images were obtained with an automated microscope ImageXpress® Micro XLS System (Molecular Devices)."}, "MDA-MB-231 cells [2]": {"test_system": "MDA-MB-231 cells", "assay": "Wound healing migration assay", "type": "cell-based, human", "conditions": "5, 10 and 20 μM, 24 and 48 h", "description": "The effects of complex (4) on tumor cell migration was investigated by two methods, wound healing and transwell assays using Boyden chambers. For wound healing, MDA-MB-231 cells (2 x10^5/mL) were plated in 12-wells plates and incubated properly until the culture reached 100% of confluence. Afterwards, a straight scratch was made with a sterile pipette tip and cells were washed with culture medium to remove unbound cells and debris. Cells were incubated with complex (4) 5, 10 and 20 μM for 24 and 48 h. Cells were viewed using an inverted microscope (Nikon, T5100) at 40× total magnification and images were captured (Moticam, 1000-S camera) at 0 h, 24 h and 48 h. Closure area of migrating cells was measured using Image J software, and the percentage of wound closure was calculated, comparing time zero and 48 h, using a formula from Yue and co-workers.\n% wound closure=(At=0h−At=Δh)/(At=0h)x (100)"}, "MDA-MB-231 cells [3]": {"test_system": "MDA-MB-231 cells", "assay": "Cell adhesion to ECM proteins", "type": "cell-based, human", "description": "The effects of complex (4) on the adhesion of MDA-MB-231 cells were analyzed in 96-well plates (Corning) as described earlier. Vitronectin (1.0 μg), laminin (0.3 μg) or fibronectin (0.3 μg) immobilized on the plates in a cell adhesion buffer (20 mM HEPES, 150 mM NaCl, 5 mM KCl, 1 mM MgSO4 and 1 mM MnCl2 pH 7.35), overnight at 4°C. Collagen type I (10 μg) was dissolved in acetic acid (0.1%) and coated on the wells. On the next day, wells were blocked with adhesion buffer containing 1% BSA solution for 1h and then washed with 100 μL per well of adhesion buffer. Cells (5 x 10^4/100 μL) were incubated for 30 min with different concentrations of the complex (4) at 37°C 5% CO2 and then plated and incubated under the same conditions for a further 1h. Then the non-adhered cells were gently removed by washing and attached cells were fixed with 100 μL 70% ethanol for 10 min. Cells were stained with 0.5% crystal violet for 20min and the excess dye was removed by washing with PBS. The stained cells were diluted in 100 μL of 1% solution of sodium dodecyl sulfate (SDS) for 30min and reading of the plates was performed on ELISA reader at 595 nm wavelength."}, "[4]": {"assay": "Water-octanol partition coefficient (stir-flask method)", "type": "physicochemical", "conditions": "24 h shaking, 37°C", "description": "The water-octanol partition coefficients were determined by use of the stir-flask method. The complex was added in a mixture with equal volumes of water and octanol shaking by 24 h at 100 rpm and 37°C, samples were centrifuged for 5min at 300rpm, the organic and aqueous phases were separated. The concentration of drug in each phase was measured spectrophotometrically in order to determine values of P = [drug] (in octanol)/[drug] (in water)."}, "HSA": {"molecular_target": "HSA (Homo sapiens, UniProt P02768)", "sequence (P02768 25-609)": "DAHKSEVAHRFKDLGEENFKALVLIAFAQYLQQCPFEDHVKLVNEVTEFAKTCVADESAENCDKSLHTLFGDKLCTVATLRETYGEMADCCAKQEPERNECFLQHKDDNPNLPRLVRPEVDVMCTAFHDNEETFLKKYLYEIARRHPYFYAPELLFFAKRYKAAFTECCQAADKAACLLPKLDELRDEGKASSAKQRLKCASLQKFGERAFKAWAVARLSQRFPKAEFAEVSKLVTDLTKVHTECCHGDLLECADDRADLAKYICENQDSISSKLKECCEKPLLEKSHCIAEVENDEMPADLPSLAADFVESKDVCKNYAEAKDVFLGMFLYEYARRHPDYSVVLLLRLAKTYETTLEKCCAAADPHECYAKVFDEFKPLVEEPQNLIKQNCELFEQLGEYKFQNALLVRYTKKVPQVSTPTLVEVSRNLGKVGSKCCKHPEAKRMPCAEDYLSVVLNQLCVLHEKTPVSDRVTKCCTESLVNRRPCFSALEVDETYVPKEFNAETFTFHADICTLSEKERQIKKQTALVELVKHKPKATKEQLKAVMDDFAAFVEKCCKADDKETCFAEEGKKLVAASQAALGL", "assay": "HSA tryptophan fluorescence quenching", "type": "binding", "description": "For fluorescence measurements, the HSA concentration in Tris–HCl buffer was kept constant in all the samples, while the complex concentration was increased from 0.50 to 50 μM, and quenching of the emission intensity of the HSA tryptophan residues at 305 nm (excitation wavelength 270 nm) was monitored at different temperatures (25°C and 37°C). The experiments were carried out in triplicate and analysed using the classical Stern-Volmer equation. The binding constant (Kb) and number of complexes bound to HSA (n) were determined by plotting the double log graph of the fluorescence data using: log [(F0-F)/F] = log Kb + nlog[Q]. The thermodynamic parameter (ΔH) was calculated from equation: ln (K2/K1) = [(1/T1)-(1/T2)]ΔH/R, where K1 and K2 are the binding constants at temperatures T1 and T2, and R is the gas constant. Furthermore, the change in free energy (ΔG) and entropy (ΔS) were calculated from the following equation: ΔG = -RT lnK = ΔH − TΔS.\nHuman serum albumin (HSA) is the most abundant protein in the blood and cerebrospinal fluid and plays a fundamental role in the distribution of essential transition metal ions in the human body. Moreover, HSA is an important physiological transporter of the essential metal ions Cu^2+, and Zn^2+ in the bloodstream. […] The fluorescence spectrum is essentially that of tryptophan residue; contribution of tyrosine is relatively minor. In order to determine the protein binding affinity of complexes (1–4), tryptophan emission quenching experiments were carried out by adding the complexes in increasing concentration (0–50 μM) to HSA at two different temperatures and following the decrease in fluorescence intensities (Fig 6D). The results point out a good linearity at the two different temperatures. The binding constants, KSV, calculated from the Stern-Volmer equation are presented on Table 2."}}, "data": [{"smiles": "CC(=O)[O-].F[P-](F)(F)(F)(F)F.[Ru+2].c1ccc(-c2ccccn2)nc1.c1ccc(P(CCCCP(c2ccccc2)c2ccccc2)c2ccccc2)cc1", "note": "[Complex (4), [Ru(CH3CO2)(dppb)(bipy)]PF6]", "values": [{"measurement": "effect on actin cytoskeleton structure", "setting": "MDA-MB-231 cells [1]; 10, 20 and 40 μM", "value": "strongly modified the structure of the actin cytoskeleton"}, {"measurement": "effect on cytoskeleton density", "setting": "MDA-MB-231 cells [1]; 20 and 40 μM", "value": "decrease in cytoskeleton density"}, {"measurement": "effect on cell migration (wound healing)", "setting": "MDA-MB-231 cells [2]", "value": "inhibited MDA-MB-231 cell migration in a concentration dependent fashion"}, {"measurement": "inhibition of cell adhesion to type I collagen", "setting": "MDA-MB-231 cells [3]; 20 μM", "value": "approximately 35%"}, {"measurement": "inhibition of cell adhesion to fibronectin, laminin and vitronectin", "setting": "MDA-MB-231 cells [3]; 40 μM", "value": "about 65%"}, {"measurement": "inhibition of cell adhesion to type I collagen", "setting": "MDA-MB-231 cells [3]; 40 μM", "value": "~50", "unit": "%"}, {"measurement": "effect on cell adhesion to fibronectin, laminin and vitronectin", "setting": "MDA-MB-231 cells [3]; all concentrations tested", "value": "inhibited cell adhesion"}, {"measurement": "Log P", "setting": "[4]", "value": "0.77 ± 0.03"}, {"measurement": "Kq (HSA)", "setting": "HSA; T 298", "value": "4.95e+13", "unit": "M⁻¹ s⁻¹"}, {"measurement": "Ksv (HSA)", "setting": "HSA; T 298", "value": "4.74 ± 0.70 x10^4 M^-1"}, {"measurement": "n (number of binding sites, HSA)", "setting": "HSA; T 298", "value": 1.20}, {"measurement": "ΔS (HSA)", "setting": "HSA; complex-HSA system", "value": 110.13, "unit": "J.mol^-1K"}, {"measurement": "ΔH (HSA)", "setting": "HSA; from binding constants at 298 and 310", "value": 0.359, "unit": "kcal/mol"}]}]}
